The text below walks through data of PMC6940745 (International Journal of Molecular Sciences, 2019).

Where a SMILES comes first, the peptide text is derived from it. [ ]: non-standard residue; d: D form. The star is where a group is joined. Bz = O=C(c1ccccc1)*; NPr2 = CCCN(CCC)*

As a reminder, the EC50 is the concentration giving half of the maximal effect.

One test addresses human MCH1R (Homo sapiens, UniProt Q99705). The test can be described thus: MCH1R activation, Aequorin assay. It counts as cell-based. To be noted: eight concentrations, 0.01 to 100,000 nM. The method, then: (§1) Melanin-concentrating hormone receptor (MCHR), endothelin-1 receptor (ETBR), and serotonin-receptor (5-HT2AR) assays were performed by means of Aequorin assays. Recombinant cells co-expressing human MCH1R, MCH2R, ETBR, or 5-HT2AR and mitochondrial apoaequorin (MCH1R, MCH2R and 5-HT2AR cells also co-express recombinant Gα16 protein) (EuroscreenFast, Gosselies, Belgium), grown 18 h prior to the test in media without antibiotics, were detached by gentle flushing with PBS-EDTA (5 mM EDTA), recovered by centrifugation, and resuspended in assay buffer (DMEM/HAM’s F12 with HEPES + 0.1% BSA protease free). Cells were incubated under agitation at room temperature for at least 4 h with Coelenterazine h (Promega, X300X, 0.5 µM final concentration). Dose response curves with the reference compounds were performed before testing the compounds. For agonist testing, 50 µL of cell suspension was injected on 50 µL of test compound or reference agonist diluted in assay buffer and plated in a 96-well plate. The resulting emission of light was recorded using the Hamamatsu Functional Drug Screening System 6000 (FDSS 6000). […] Agonist activity of test compound was expressed as a percentage of the activity of the reference agonist at its EC100 concentration.

The test system of test [1] is B16 murine melanoma cells. The test can be described thus: Total melanin synthesis in mouse melanoma cells. It counts as cell-based. The following applies: 72 h incubation. The method, then:
B16 murine melanoma cells, which are highly responsive towards stimulation with alpha-melanocyte stimulating hormone (alpha-MSH), were grown in Dulbecco’s modified eagle medium (DMEM) with 1 g/L glucose supplemented with 3 g/L glucose, 2 mM L-glutamine, 50 U/mL Penicillin, 50 µg/mL Streptomycin, and 10% fetal calf serum. They were kept at 37 °C in a 5% CO2 atmosphere. Cells were grown for 24 h and then medium was replaced with medium containing the test or reference (NDP-alpha-MSH) compounds. After 72 h, total (intracellular and extracellular) melanin content was determined by absorbance spectroscopy at 405 nm. The results were quantified against a melanin standard curve.
Figure 1 Total melanin synthesis in mouse melanoma cells stimulated with MC1R-agonist peptides. MC1R-agonist peptides were incubated at various concentrations together with the near confluent mouse melanoma cell line B16F10. NDP-alpha-MSH at 100 nM was used as the reference and set to 100% melanin (red line). Error bars represent standard error of the mean of three experiments.

Another test addresses T1, OP2R (Homo sapiens, UniProt P41145).
T1 construct: host or cells: CHO-K1 (membrane preparations)
Nature of the test: OP2R (kappa opioid) activation, GTPγS scintillation proximity assay. It counts as biochemical. The following applies: eight concentrations, 0.01 to 100,000 nM. The method, then:
Melatonin (MT1R and MT2R) and opioid receptor (OP1R, OP2R, and OP3R, corresponding to human delta, kappa, and mu opioid receptors) activation assays were performed by means of GTPγS scintillation proximity assays. For agonist testing, membrane preparations from CHO-K1 cells expressing each receptor (EuroscreenFast, Gosselies, Belgium) were mixed with guanosine diphosphate (GDP) (v/v). In parallel, GTPγ[^35S] (PerkinElmer, NEG030X, 0.1 nM final assay concentration) was mixed with PVT-WGA beads (Perkin Elmer, RPNQ001, 0.5 mg/well final assay density) (v/v) just before starting the reaction. The following reagents were then successively added in the wells of an Optiplate (Perkin Elmer): A total of 50 µL of test or reference ligand diluted in assay buffer, 10 µL of assay buffer (20 mM HEPES pH 7.4; 100–200 mM NaCl, 10 µg/mL saponin, MgCl2 at optimized concentration for the specific receptor, 0%–0.1% BSA), 20 µL of the membranes: GDP mix, and 20 µL of the GTPγ[^35S]: Beads mix. The plates were covered with a top seal, mixed on an orbital shaker for 2 min, and then incubated for 1 h at room temperature. Then the plates were centrifuged for 10 min at 2000 rpm, incubated at room temperature for 1 h, and counted for 1 min/well with a PerkinElmer TopCount™ reader.

A further test relates to TYRP-1. Nature of the test: TYRP-1 protein expression in human skin ex vivo (immunohistochemistry). It is filed as cell-based. To be noted: topical 30, 100 and 200 µM, six days; p < 0.05. The method, then:
Following declaration of Helsinki principles (DoH-Oct2013, World Medical Association, Ferney-Voltaire, France), human skin samples were obtained from elective plastic surgery after informed consent was obtained. For the two experiments shown in Figure 2, Figure 3 and Figure 4, we had one person with an individual topology angle (ITA°) of 18, and one person with an ITA° of 39 [69]. The skin samples were cut in pieces of 8 × 3 mm and cultured up to day 6. Skin samples were cultured in an air–liquid interface in a perforated ring of stainless steel in contact with culture medium (modified Williams’ E medium). The culture medium was renewed every three days (i.e., day 0–3). Compounds were added daily in DMSO at 4 µL volume. At day 6, the skin samples were fixed in formalin, embedded in paraplast, and cut at the microtome for histochemical staining and consequent image analysis. Six skin biopsies were used for each single treatment.
Twelve skin sections from the ex vivo melanogenesis experiment above were immunoassayed with the selected antibodies (TYR, Thermo Scientific #MS-800-P0 (Thermo Scientific, Waltham, MA, USA); TYRP-1, Covance #SIG-38150 (Covance Inc., Princeton, NJ, USA), MITF, Abcam #ab80651 (Abcam plc, Cambridge, UK). The number of positive cells within the epidermis was counted and the value was normalized upon the length of the basal lamina, thus obtaining a score. […]

The target of a further test is human MCH2R (Homo sapiens, UniProt Q969V1). Nature of the test: MCH2R activation, Aequorin assay. It is filed as cell-based. The following applies: eight concentrations, 0.01 to 100,000 nM. The method, then:
as §1

The test system of the next test is MC1R. The test can be described thus: MC1R expression in ex vivo epidermis in the presence of UVA. It counts as cell-based, human. To be noted: ex vivo epidermis in the presence of UVA (Figure S1).

T1 sequence (P41145 whole entry): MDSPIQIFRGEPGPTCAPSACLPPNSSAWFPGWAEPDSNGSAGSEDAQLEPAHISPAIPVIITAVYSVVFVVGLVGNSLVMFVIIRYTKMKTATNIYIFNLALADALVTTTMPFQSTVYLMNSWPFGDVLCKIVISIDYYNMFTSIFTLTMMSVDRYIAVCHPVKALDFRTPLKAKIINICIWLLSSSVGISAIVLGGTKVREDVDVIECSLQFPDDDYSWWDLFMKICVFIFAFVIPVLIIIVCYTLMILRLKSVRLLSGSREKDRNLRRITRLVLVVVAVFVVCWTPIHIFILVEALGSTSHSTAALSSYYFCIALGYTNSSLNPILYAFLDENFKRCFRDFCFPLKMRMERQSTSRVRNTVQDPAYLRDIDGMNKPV
human MCH1R, sequence (Q99705 whole entry): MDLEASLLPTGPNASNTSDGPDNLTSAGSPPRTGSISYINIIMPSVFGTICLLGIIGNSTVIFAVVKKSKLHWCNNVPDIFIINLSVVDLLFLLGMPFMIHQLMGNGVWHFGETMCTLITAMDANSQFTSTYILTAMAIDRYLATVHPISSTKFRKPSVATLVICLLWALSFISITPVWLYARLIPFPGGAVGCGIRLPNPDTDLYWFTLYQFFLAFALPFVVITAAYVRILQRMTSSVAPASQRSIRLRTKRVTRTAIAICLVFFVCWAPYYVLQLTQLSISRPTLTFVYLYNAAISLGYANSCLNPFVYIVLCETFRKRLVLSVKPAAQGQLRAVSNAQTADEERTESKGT
human MCH2R, sequence (Q969V1 whole entry): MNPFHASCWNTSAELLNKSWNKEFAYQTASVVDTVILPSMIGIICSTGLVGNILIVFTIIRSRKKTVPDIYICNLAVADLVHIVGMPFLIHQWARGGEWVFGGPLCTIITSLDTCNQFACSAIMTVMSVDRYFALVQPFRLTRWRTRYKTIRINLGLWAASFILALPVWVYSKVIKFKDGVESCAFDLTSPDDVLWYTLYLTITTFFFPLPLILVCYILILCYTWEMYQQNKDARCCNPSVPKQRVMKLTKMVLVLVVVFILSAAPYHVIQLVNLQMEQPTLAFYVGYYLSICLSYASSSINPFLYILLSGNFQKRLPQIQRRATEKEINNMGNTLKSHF

On to `CCCN(CCC)C(=O)[C@@H](Cc1c[nH]c2ccccc12)NC(=O)[C@H](CCCNC(=N)N)NC(=O)[C@@H](Cc1ccccc1)NC(=O)[C@H](Cc1c[nH]cn1)NC(=O)CNC(=O)c1ccccc1` [Peptide 4] (Bz-GH[dF]R[dW]-NPr2), for which the EC50 at human MCH1R, on OP2R and on human MCH2R was > 100 µM in each case. The “Concentration at which maximal melanin synthesis activity comparable to 100 nM NDP-alpha-MSH is reached” value in test [1] is recorded as “around 12.3 nM”. The “Maximal induction of TYRP-1 protein expression vs vehicle” value in the test with TYRP-1 is 72%. The “Influence on expression of MC1R” value in the test with MC1R was “no influence”.
